Test results reported in PMC9841585 (ACS Medicinal Chemistry Letters, 2022).

System: CHO cells
Experiment: Biotium XTT cell viability kit
Type: cell-based, Chinese hamster
Settings: 24 hours, medium with 5% serum

## Cc1nc(N2CCN(C(=O)c3ccco3)CC2)c2c3c(sc2n1)CC(C)(C)CC3 [Compound 24]
  cytotoxicity (no cytotoxicity up to): > 10 µM
